We go through one compound from article PMC7522982, “PKIS deep dive yields a chemical starting point for dark kinases and a cell active BRSK2 inhibitor” (Scientific Reports, 2020).

The subject of assay [1] is RPS6KA3/RSK2. The assay can be described thus: DiscoverX scanMAX competition binding assay. The arrangement: species or system human. The source says: Based on its narrow profile when tested in the combined Nanosyn and TSA panels, GW296115 was included in the recently released Kinase Chemogenomic Set (KCGS)[15]. All of the data presented in the Introduction section was collected prior to the inclusion of GW296115 in KCGS and everything that follows has been subsequently generated. Since its inclusion in PKIS and more recently KCGS, we have carried out a broader round of screening at DiscoverX. This profiling data has not been previously released and is reported here for the first time. GW296115 was profiled against 403 wild type human kinases at 1 μM using the DiscoverX scanMAX screening platform, which employs an active site-directed competition binding assay to quantitatively measure interactions between test compounds and kinases, [16]. GW296115 inhibited 25 kinases > 90% at 1 μM, resulting in a selectivity index (S10) of 0.062 at 1 μM (Table S2, Fig. 1C)[17].
The scanMAX assays were performed at Eurofins DiscoverX Corporation as previously described.

Assay [2] relates to BRSK2-induced phosphorylation. The assay can be described thus: Western blot of BRSK2-induced phosphorylation in HEK293T cells. The assay is classed as cell-based. The source says:
With confirmed cellular activity, we next focused on characterizing the pathways mediated by BRSK2 utilizing GW296115. BRSK2 has a similar kinase domain to AMPK and is activated by LKB1-mediated phosphorylation in the active site at T174[24]–[26]. As previously reported, BRSK2 induces phosphorylation of AMPK substrates. Therefore, we asked whether this BRSK2-induced phosphorylation of AMPK substrates is ablated by GW296115. First, we evaluated the effect of GW296115 on AMPK substrate phosphorylation in HEK293T cells overexpressing wild-type or kinase-dead BRSK2 (Fig. 3B). Specifically, we overexpressed two different kinase-dead BRSK2 constructs, K48A and T174A, and treated cells with 2.5 μM of GW296115 for 2 or 6 h. Compared to cells expressing hcRED control, wild-type BRSK2 overexpression induced AMPK substrate phosphorylation, as measured by phospho-S/T AMPK substrate antibody. This change was not observed when overexpressing kinase-dead variants. BRSK2-induced AMPK substrate phosphorylation was ablated with GW269115 treatment at both 2- and 6-h time-points.
Next we evaluated whether specific bona fide AMPK substrates were phosphorylated by BRSK2. Based on the total pS/T AMPK substrate blots, we decided to check known substrates that match the size of the most robust changes due to BRSK2 overexpression. UNC51-like kinase 1 (ULK1) is a 120 kDa kinase that is member of the autophagy initiation complex, and is phosphorylated by AMPK at multiple residues, S317 and S555, among others[27]–[29]. Therefore, we overexpressed wild type BRSK2 in HEK293T cells and measured changes in pULK1 S317 and S555 following treatment with increasing doses of GW296115 for 2 h. BRSK2 overexpression increased phosphorylation of ULK1 at S317, but not S555. […] However, in samples expressing control hcRED, treatment with GW296115 increased pAMPK T172. We also asked if activating phosphorylation of ULK1 leads to increased phosphorylation of downstream components of the autophagy complex. Therefore we evaluated phosphorylation of S351 on P62 (SQSTM1), which is a stress induced autophagy receptor for ubiquitylated cargo[30]. Due to its central role as a signaling hub, P62 accumulation and phosphorylation serves as a sensor for starvation, oxidative stress, and selective autophagy[30]–[32]. […] Moreover, these phosphorylation events were ablated by GW296115 in a dose dependent manner (Fig. 4B,C).
Western blots were carried out as described previously. HEK293T cells were plated in 6-well format and incubated at 37 °C with 5% CO2 for 12 h. Next, cells were transfected with 1.5 ug of plasmid per well for 24 h and treated with GW296115 (in DMSO). Samples were lysed using standard conditions of RIPA (10% glycerol, 50 mM Tris–HCL, 100 mM NaCl, 2 mM EDTA, 0.1% SDS, 1% Nonidet P-40, and 0.2% Sodium Deoxycholate) supplemented with protease inhibitor cocktail (ThermoFisher Scientific, 78429), phosphatase inhibitor cocktail (ThermoFisher Scientific, 78426), NEM (Thermo Scientific, 23030), and Benzonase (Sigma, E1014). Lysis was carried out on ice over the course of 30 min and resultant lysates were centrifuged at 4 °C for 15 min at 21,000×g. Following normalization of protein concentration via BCA (Pierce, 23225), samples were denatured in NuPAGE LDS buffer (Invitrogen, NP0007) plus 1 mM DTT. Blots were imaged with a LiCor Odyssey imager, and then quantified using ImageStudio 5.2. Finally, ANOVA with multiple comparison was performed for quantitated blots using Prism 8.2.4.
In general terms: Immunoblotting shows a protein as a band on a membrane.

Assay [3] has as its target T1, BRSK2 (Homo sapiens, UniProt Q8IWQ3).
T1 sequence (Q8IWQ3 1-736): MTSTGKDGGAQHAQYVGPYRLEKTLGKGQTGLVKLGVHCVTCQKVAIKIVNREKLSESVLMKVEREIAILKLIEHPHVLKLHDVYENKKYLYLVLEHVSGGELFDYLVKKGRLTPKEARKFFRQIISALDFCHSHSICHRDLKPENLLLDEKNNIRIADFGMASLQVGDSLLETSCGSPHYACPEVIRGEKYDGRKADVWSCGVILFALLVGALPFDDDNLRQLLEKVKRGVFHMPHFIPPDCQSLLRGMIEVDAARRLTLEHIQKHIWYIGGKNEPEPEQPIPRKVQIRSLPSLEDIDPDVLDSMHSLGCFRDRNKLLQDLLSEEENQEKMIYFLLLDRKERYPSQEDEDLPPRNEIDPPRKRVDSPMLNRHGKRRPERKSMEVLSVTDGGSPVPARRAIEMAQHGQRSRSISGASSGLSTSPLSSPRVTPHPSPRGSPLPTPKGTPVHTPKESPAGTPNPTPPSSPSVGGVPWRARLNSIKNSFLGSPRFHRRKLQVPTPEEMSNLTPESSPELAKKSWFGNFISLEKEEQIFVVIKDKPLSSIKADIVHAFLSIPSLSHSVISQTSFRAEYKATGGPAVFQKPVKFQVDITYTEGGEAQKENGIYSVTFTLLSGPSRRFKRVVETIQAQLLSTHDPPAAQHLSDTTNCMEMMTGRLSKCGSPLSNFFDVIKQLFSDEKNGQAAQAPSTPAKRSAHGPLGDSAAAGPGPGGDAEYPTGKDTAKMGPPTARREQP
The arrangement: purchased Eurofins DiscoverX Corporation; method as in earlier work. The note with it: cited from earlier work.

The target in assay [4] is PIM2 (Homo sapiens, UniProt Q9P1W9). The arrangement: purchased Eurofins DiscoverX Corporation; method as in earlier work. As to conditions: cited from earlier work.
The mark [5] stands for this setting: HEK293T overexpressing wild type BRSK2, increasing doses for 2 h.

Chain of PIM2 (Q9P1W9 whole entry): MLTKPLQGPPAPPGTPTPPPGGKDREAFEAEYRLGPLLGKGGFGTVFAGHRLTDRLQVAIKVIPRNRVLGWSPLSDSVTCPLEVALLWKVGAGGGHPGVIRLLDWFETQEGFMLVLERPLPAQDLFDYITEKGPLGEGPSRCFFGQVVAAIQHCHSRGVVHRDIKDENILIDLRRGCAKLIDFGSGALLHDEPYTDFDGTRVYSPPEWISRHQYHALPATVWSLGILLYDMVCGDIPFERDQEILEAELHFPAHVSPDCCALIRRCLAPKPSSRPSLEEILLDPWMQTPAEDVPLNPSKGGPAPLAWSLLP

In the case of `COc1ccc2[nH]c3c4[nH]c5ccc(OC)cc5c4c4c(c3c2c1)C(=O)NC4=O` [GW296115], in assay [1], the “DiscoverX % Inhibition at 1 μM” value turned out to be 84%. Besides, in assay [2] (setting [5]), the “BRSK2-induced phosphorylation of ULK1 S317” value is “decreased dose-dependently” and the “pP62 S351 following BRSK2 overexpression” value is given as “dose dependently downregulated”. For the same compound, the “BRSK2-induced AMPK substrate phosphorylation (phospho-S/T AMPK substrate antibody)” value in assay [2] (HEK293T overexpressing wild-type BRSK2, 2.5 μM for 2 or 6 h) is reported as “ablated”. Moreover, the “phosphorylation of BRSK2 at T174” value in assay [2] (HEK293T overexpressing wild-type or K48A BRSK2) is given as “hyper-phosphorylated”. The “phosphorylation at the LKB1 target site (T172) on AMPK” value in assay [2] (HEK293T, 2.5 μM for 2 or 6 h) was “did not inhibit”. Moreover, in assay [3], the “Nanosyn % Inhibition at 1 μM” value is reported as 95%. For the same compound, in assay [4], the “Nanosyn % Inhibition at 1 μM” value is listed as 68%.
